pIC50: −log10 of the molar value.
Molecular target: T1, AR (Homo sapiens, UniProt P10275, T878A)
T1 construct: into the androgen-dependent PCa cells (LNCaP); endogenous in cells; host or cells: LNCaP-ARR2PB-eGFP
T1 sequence (P10275 1-920 T878A): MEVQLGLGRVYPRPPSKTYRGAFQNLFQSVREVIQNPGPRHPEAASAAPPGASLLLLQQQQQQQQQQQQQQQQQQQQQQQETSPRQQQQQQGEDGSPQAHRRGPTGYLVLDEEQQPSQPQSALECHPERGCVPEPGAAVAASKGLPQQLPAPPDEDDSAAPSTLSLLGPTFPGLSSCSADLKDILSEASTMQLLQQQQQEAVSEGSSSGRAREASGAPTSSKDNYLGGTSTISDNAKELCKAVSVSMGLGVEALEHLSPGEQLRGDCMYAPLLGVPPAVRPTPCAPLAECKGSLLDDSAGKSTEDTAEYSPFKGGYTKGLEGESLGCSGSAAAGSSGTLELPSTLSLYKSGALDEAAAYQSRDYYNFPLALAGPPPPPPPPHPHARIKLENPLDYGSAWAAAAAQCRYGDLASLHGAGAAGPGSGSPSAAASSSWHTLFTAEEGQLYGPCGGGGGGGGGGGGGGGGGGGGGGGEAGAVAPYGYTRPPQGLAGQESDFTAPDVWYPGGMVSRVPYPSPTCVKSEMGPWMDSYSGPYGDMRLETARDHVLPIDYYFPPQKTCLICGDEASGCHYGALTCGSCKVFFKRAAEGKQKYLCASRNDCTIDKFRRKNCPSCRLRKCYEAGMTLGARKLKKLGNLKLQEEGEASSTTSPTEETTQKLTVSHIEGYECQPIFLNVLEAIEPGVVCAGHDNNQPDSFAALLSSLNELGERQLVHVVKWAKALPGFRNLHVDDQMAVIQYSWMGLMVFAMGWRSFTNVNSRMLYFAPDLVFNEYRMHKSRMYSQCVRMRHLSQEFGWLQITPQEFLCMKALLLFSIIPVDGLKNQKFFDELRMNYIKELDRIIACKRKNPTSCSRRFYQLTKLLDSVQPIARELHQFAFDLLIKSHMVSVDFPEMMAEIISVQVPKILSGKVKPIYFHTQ
Assay: AR transcriptional activity, LNCaP-ARR2PB-eGFP reporter cells
Assay type: cell-based
Settings: read-out: IC50 AR transcriptional activities
Excerpt: Detection principles: We conducted a stable transfection of promoter ARR2PB known for its strong AR responsiveness, into the androgen-dependent PCa cells (LNCaP). The expression of enhanced green fluorescent protein (eGFP) is depending on the degree of activation of AR. Therefore, LNCaP-ARR2PB-eGFP cell line could quantitatively determine the AR antagonistic activities of the compounds by evaluating the expression of eGFP.

pIC50 | Structure (SMILES)
4.64 | CCN(CC)Cc1nsc(NC(=O)c2coc(-c3cccc(OC)c3)c2)n1 [Compound B-50, N-(3-((diethylamino)methyl)-1,2,4-thiadiazol-5-yl)-5-(3-methoxyphenyl)furan-3-carboxamide]
4.55 | O=C(Nc1nc(CN2CCCCC2)ns1)c1coc(-c2cccc(OC(F)F)c2)c1 [Compound B-56, 5-(3-(Difluoromethoxy)phenyl)-N-(3-(piperidin-1-ylmethyl)-1,2,4-thiadiazol-5-yl)furan-3-carboxamide]
4.63 | O=C(Nc1nc(CN2CCOCC2)ns1)c1coc(-c2cccc(OC(F)F)c2)c1 [Compound B-57, 5-(3-(Difluoromethoxy)phenyl)-N-(3-(morpholinomethyl)-1,2,4-thiadiazol-5-yl)furan-3-carboxamide]
4.49 | CN1CCN(Cc2nsc(NC(=O)c3coc(-c4cccc(OC(F)F)c4)c3)n2)CC1 [Compound B-58, 5-(3-(Difluoromethoxy)phenyl)-N-(3-((4-methylpiperazin-1-yl)methyl)-1,2,4-thiadiazol-5-yl)furan-3-carboxamide]
5.03 | CC(=O)Cc1nsc(NC(=O)c2cc(-c3cccc(C(F)(F)F)c3)sc2C)n1 [Compound C-1, 2-Methyl-N-(3-(2-oxopropyl)-1,2,4-thiadiazol-5-yl)-5-(3-(trifluoromethyl)phenyl)thiophene-3-carboxamide]
4.48 | CC(=O)Cc1nsc(NC(=O)c2cc(-c3cccc(C#N)c3)sc2C)n1 [Compound C-2, 5-(3-Cyanophenyl)-2-methyl-N-(3-(2-oxopropyl)-1,2,4-thiadiazol-5-yl)thiophene-3-carboxamide]
4.36 | COc1cccc(-c2cc(C(=O)Nc3nc(CC(C)=O)ns3)c(C)s2)c1 [Compound C-3, 5-(3-Methoxyphenyl)-2-methyl-N-(3-(2-oxopropyl)-1,2,4-thiadiazol-5-yl)thiophene-3-carboxamide]
4.60 | CC(=O)Cc1nsc(NC(=O)c2cc(-c3cccc(OC(F)(F)F)c3)sc2C)n1 [Compound C-4, 2-Methyl-N-(3-(2-oxopropyl)-1,2,4-thiadiazol-5-yl)-5-(3-(trifluoromethoxy)phenyl)thiophene-3-carboxamide]
4.31 | CC(=O)Cc1nsc(NC(=O)c2cc(-c3cccc(OC(F)F)c3)sc2C)n1 [Compound C-5, 5-(3-(Difluoromethoxy)phenyl)-2-methyl-N-(3-(2-oxopropyl)-1,2,4-thiadiazol-5-yl)thiophene-3-carboxamide]

More lines, now with the values behind:

Structure (SMILES) | pIC50
Cc1oc(-c2cccc(OC(F)(F)F)c2)cc1C(=O)Nc1nc(CN2CCCC2)ns1 [Compound A-124, 2-Methyl-N-(3-(pyrrolidin-1-ylmethyl)-1,2,4-thiadiazol-5-yl)-5-(3-(trifluoromethoxy)phenyl)furan-3-carboxamide] | 7.40
Cc1oc(-c2cccc(OC(F)F)c2)cc1C(=O)Nc1nc(CN2CCCCC2)ns1 [Compound A-129, 5-(3-(Difluoromethoxy)phenyl)-2-methyl-N-(3-(piperidin-1-ylmethyl)-1,2,4-thiadiazol-5-yl)furan-3-carboxamide] | 7.22
Cc1oc(-c2cccc(OC(F)F)c2)cc1C(=O)Nc1nc(CN2CCOCC2)ns1 [Compound A-130, 5-(3-(Difluoromethoxy)phenyl)-2-methyl-N-(3-(morpholinomethyl)-1,2,4-thiadiazol-5-yl)furan-3-carboxamide] | 6.17
Cc1oc(-c2cccc(OC(F)F)c2)cc1C(=O)Nc1nc(CN2CCN(C)CC2)ns1 [Compound A-131, 5-(3-(Difluoromethoxy)phenyl)-2-methyl-N-(3-((4-methylpiperazin-1-yl)methyl)-1,2,4-thiadiazol-5-yl)furan-3-carboxamide] | 5.85
CC(=O)Cc1nsc(NC(=O)c2coc(-c3cccc(C(F)(F)F)c3)c2)n1 [Compound B-1, N-(3-(2-oxopropyl)-1,2,4-thiadiazol-5-yl)-5-(3-(trifluoromethyl)phenyl)furan-3-carboxamide] | 4.73
CC(=O)Cc1nsc(NC(=O)c2coc(-c3cccc(C#N)c3)c2)n1 [Compound B-2, 5-(3-Cyanophenyl)-N-(3-(2-oxopropyl)-1,2,4-thiadiazol-5-yl)furan-3-carboxamide] | 4.26
COc1cccc(-c2cc(C(=O)Nc3nc(CC(C)=O)ns3)co2)c1 [Compound B-3, 5-(3-Methoxyphenyl)-N-(3-(2-oxopropyl)-1,2,4-thiadiazol-5-yl)furan-3-carboxamide] | 4.90
CC(=O)Cc1nsc(NC(=O)c2coc(-c3cccc(OC(F)(F)F)c3)c2)n1 [Compound B-4, N-(3-(2-oxopropyl)-1,2,4-thiadiazol-5-yl)-5-(3-(trifluoromethoxy)phenyl)furan-3-carboxamide] | 4.49
CC(=O)Cc1nsc(NC(=O)c2coc(-c3cccc(OC(F)F)c3)c2)n1 [Compound B-5, 5-(3-(Difluoromethoxy)phenyl)-N-(3-(2-oxopropyl)-1,2,4-thiadiazol-5-yl)furan-3-carboxamide] | 4.71
CC(Cc1nsc(NC(=O)c2coc(-c3cccc(C(F)(F)F)c3)c2)n1)N(C)C (stereo not drawn) [Compound B-6, N-(3-(2-(dimethylamino)propyl)-1,2,4-thiadiazol-5-yl)-5-(3-(trifluoromethyl)phenyl) furan-3-carboxamide] | 4.93
CCN(CC)C(C)Cc1nsc(NC(=O)c2coc(-c3cccc(C(F)(F)F)c3)c2)n1 (stereo not drawn) [Compound B-7, N-(3-(2-(diethylamino)propyl)-1,2,4-thiadiazol-5-yl)-5-(3-(trifluoromethyl)phenyl)furan-3-carboxamide] | 4.82
CC(Cc1nsc(NC(=O)c2coc(-c3cccc(C#N)c3)c2)n1)N1CCCC1 (stereo not drawn) [Compound B-12, 5-(3-Cyanophenyl)-N-(3-(2-(pyrrolidin-1-yl)propyl)-1,2,4-thiadiazol-5-yl)furan-3-carboxamide] | 4.63
COc1cccc(-c2cc(C(=O)Nc3nc(CC(C)N4CCCCC4)ns3)co2)c1 (stereo not drawn) [Compound B-14, 5-(3-Methoxyphenyl)-N-(3-(2-(piperidin-1-yl)propyl)-1,2,4-thiadiazol-5-yl)furan-3-carboxamide] | 4.47
CC(Cc1nsc(NC(=O)c2coc(-c3cccc(OC(F)(F)F)c3)c2)n1)N1CCOCC1 (stereo not drawn) [Compound B-16, N-(3-(2-morpholinopropyl)-1,2,4-thiadiazol-5-yl)-5-(3-(trifluoromethoxy)phenyl)furan-3-carboxamide] | 4.45
CC(Cc1nsc(NC(=O)c2coc(-c3cccc(OC(F)F)c3)c2)n1)N1CCN(C)CC1 (stereo not drawn) [Compound B-19, 5-(3-(Difluoromethoxy)phenyl)-N-(3-(2-(4-methylpiperazin-1-yl)propyl)-1,2,4-thiadiazol-5-yl)furan-3-carboxamide] | 4.23
CC(O)Cc1nsc(NC(=O)c2coc(-c3cccc(C(F)(F)F)c3)c2)n1 (stereo not drawn) [Compound B-20, N-(3-(2-hydroxypropyl)-1,2,4-thiadiazol-5-yl)-5-(3-(trifluoromethyl)phenyl)furan-3-carboxamide] | 4.94
CC(O)(Cc1nsc(NC(=O)c2coc(-c3cccc(C(F)(F)F)c3)c2)n1)C(F)(F)F (stereo not drawn) [Compound B-25, N-(3-(3,3,3-trifluoro-2-hydroxy-2-methylpropyl)-1,2,4-thiadiazol-5-yl)-5-(3-(trifluoro-methyl)phenyl)furan-3-carboxamide] | 4.81
CC(Cc1nsc(NC(=O)c2coc(-c3cccc(C(F)(F)F)c3)c2)n1)=C(F)F [Compound B-30, N-(3-(3,3-difluoro-2-methylallyl)-1,2,4-thiadiazol-5-yl)-5-(3-(trifluoromethyl)phenyl) furan-3-carboxamide] | 5.31
CC(F)(F)Cc1nsc(NC(=O)c2coc(-c3cccc(C(F)(F)F)c3)c2)n1 [Compound B-35, N-(3-(2,2-difluoropropyl)-1,2,4-thiadiazol-5-yl)-5-(3-(trifluoromethyl)phenyl)furan-3-carboxamide] | 4.84
O=C(Nc1nc(CCl)ns1)c1coc(-c2cccc(C(F)(F)F)c2)c1 [Compound B-40, N-(3-(chloromethyl)-1,2,4-thiadiazol-5-yl)-5-(3-(trifluoromethyl)phenyl)furan-3-carboxamide] | 4.91
CN(C)Cc1nsc(NC(=O)c2coc(-c3cccc(C#N)c3)c2)n1 [Compound B-47, 5-(3-Cyanophenyl)-N-(3-((dimethylamino)methyl)-1,2,4-thiadiazol-5-yl)furan-3-carboxamide] | 4.73
